Laboratory results published in publication PMC7179119, “A New Positron Emission Tomography Probe for Orexin Receptors Neuroimaging” (Molecules, 2020).

How the values were obtained:
[1] = Plasma and metabolite analysis; type: in vivo, rhesus macaque; settings: macaque arterial plasma, at 30 min
Procedure: Briefly, arterial blood samples collected (every 10 s at first 3 min post-administration of [^11C]CW24, then 5 min, 10 min, 20 min, 30 min, 45 min, 60 min, and 90 min) during macaque imaging were centrifuged to separate plasma, which was then removed and placed in an automated gamma counter. Metabolite analysis of blood samples collected from 5 to 90 min was conducted on a custom automated robot fitted with Phenomenex SPE Strata-X 500 mg solid phase extraction cartridges that were primed with ethanol (2 mL) and deionized water (20 mL). Protein precipitation was achieved by the addition of plasma (300 μL) to acetonitrile (300 μL), which was centrifuged for 1 min to obtain protein-free plasma (PFP). Three hundred microliters of PFP/acetonitrile solution was diluted into deionized water (3 mL), loaded onto the C18 cartridge, and removed of polar metabolites with 100% water. Next, a series of extractions was performed using water and acetonitrile. Each sample was counted in a WIZARD2 Automatic Gamma Counter to determine the presence of radiolabeled metabolites.

[2] = Macaque PET-MR imaging and Logan plot kinetic modeling; type: in vivo, rhesus macaque; settings: all brain regions examined
Procedure: A male rhesus macaque (14.4 kg) was included in this study. After endotracheal intubation, the macaque was catheterized antecubitally for radiotracer injection and a radial arterial line was placed for arterial blood sampling and radiometabolite analysis. The animal was anesthetized with 1.2–1.3% Isoflurane in medical oxygen throughout the imaging session. PET-MR data was acquired on a 3T Siemens MRI scanner (Munich, Germany) with a BrainPET insert. A baseline and a blocking scan were performed on the same animal. Dynamic PET image acquisition was initiated followed by a bolus administration of [^11C]CW24 (179 MBq for the baseline scan and 192 MBq for the blocking scan). To characterize the specific binding of [^11C]CW24, a blocking study was carried out in which 2.0 mg/kg IPSU (1.0 % DMSO + 1.0 % Tween 80 + 98.0 % saline to make a solution of 1.0 mg/mL) was administered 5 min prior the acquisition. A T1-weighting multi-echo magnetization-prepared rapid gradient-echo ([…]) sequence began as the PET scan for anatomic co-registration. […]
Motion-corrected PET data were registered to the INIA19 macaque MRI Template. […] With the availability of a metabolite-corrected arterial plasma data, the regional volume of distribution (VT) was calculated using Logan Plot analysis (with a fixed t* of 40 min).

[3] = Mouse PET-CT imaging, brain uptake; type: in vivo; settings: mice, i.v., baseline
Procedure: (§1) Animals were anesthetized with 1–1.5% isoflurane and maintained with isoflurane during the imaging scan. In a single imaging session, mice were arranged in a Triumph PET/CT scanner (Gamma Medica, Northridge, CA). […] Animals underwent a 60 min dynamic PET scan followed by computed tomography (CT).
(§2) PET data were reconstructed using a 3D-MLEM method resulting in a full width at half-maximum resolution of 1 mm. PET and CT images in DICOM format were imported to PMOD (PMOD Technologies, Ltd. Zürich, Switzerland) and co-registered to the brain atlas. Volumes of interest (VOIs) were drawn as spheres in brain regions guided by CT structural images and summed PET data. Time-activity curves (TACs) were exported as activity per unit volume (%ID/cc) for analysis.

OX2R = OX2R vs OX1R; cited from earlier work
OXRs = assay: Mouse PET-CT blocking study of [^11C]CW24 uptake; type: in vivo, mice
Procedure: as §1, §2

[4] = biological target: T1, human recombinant orexin OX1 receptors (Homo sapiens, UniProt O43613); assay: Human Orexin GPCR Binding (Agonist Radioligand) Assay, [125I] Orexin A competition; settings: radioligand competition binding assay; read-out: IC50 (nM) OXR1
T1 construct: host or cells: CHO-S cells
T1 sequence (O43613 1-425): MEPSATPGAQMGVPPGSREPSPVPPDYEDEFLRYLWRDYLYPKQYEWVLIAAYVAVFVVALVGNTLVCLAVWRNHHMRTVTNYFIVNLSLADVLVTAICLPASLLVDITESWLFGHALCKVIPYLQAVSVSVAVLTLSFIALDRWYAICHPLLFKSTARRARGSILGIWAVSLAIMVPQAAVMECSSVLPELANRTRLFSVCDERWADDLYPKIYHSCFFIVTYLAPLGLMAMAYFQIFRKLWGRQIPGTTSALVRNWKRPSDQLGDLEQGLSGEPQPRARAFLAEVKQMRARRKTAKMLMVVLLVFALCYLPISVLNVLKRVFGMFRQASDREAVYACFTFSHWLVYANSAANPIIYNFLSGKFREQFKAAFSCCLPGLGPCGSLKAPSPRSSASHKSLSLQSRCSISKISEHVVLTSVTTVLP
Procedure: (§3) Radioligand competition binding assays were performed by Panlabs, Eurofins Pharma Discovery Services. Briefly, human recombinant orexin OX1 receptors expressed in CHO-S cells were used in modified HEPES buffer pH 7.4. […] Orexin A for 60 minutes at 25 °C. […] Orexin A specifically binding. Human recombinant OX2 receptors were used in modified HEPES buffer pH 7.4. […] Orexin A for 180 minutes at 25 °C. […] Orexin A specifically bound.

[5] = biological target: T2, Human recombinant OX2 receptors (Homo sapiens, UniProt O43614); assay: as above; settings: radioligand competition binding assay; read-out: IC50 (nM) OXR2
T2 sequence (O43614 1-444): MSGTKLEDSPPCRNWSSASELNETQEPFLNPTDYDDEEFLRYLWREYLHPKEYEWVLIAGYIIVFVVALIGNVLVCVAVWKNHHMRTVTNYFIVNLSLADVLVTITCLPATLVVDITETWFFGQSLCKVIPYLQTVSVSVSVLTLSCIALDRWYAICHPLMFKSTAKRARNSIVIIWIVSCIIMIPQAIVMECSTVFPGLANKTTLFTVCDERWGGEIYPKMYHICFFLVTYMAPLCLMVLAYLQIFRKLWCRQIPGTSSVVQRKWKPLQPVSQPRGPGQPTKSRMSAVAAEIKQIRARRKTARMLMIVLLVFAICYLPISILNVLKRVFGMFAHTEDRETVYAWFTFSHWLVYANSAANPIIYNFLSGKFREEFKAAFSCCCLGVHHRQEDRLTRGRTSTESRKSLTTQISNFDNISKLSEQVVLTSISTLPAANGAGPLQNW
Procedure: as §3

COc1ccnc(N2CCC3(CCCN(Cc4cn([11CH3])c5ccccc45)C3=O)CC2)n1 [[^11C]CW24]
parent compound in plasma [1]: ~ 47%
peak standard uptake value (SUV) [2]: 1.5–3.0
brain uptake %ID/cc at Cmax [3]: 3.5 %ID/cc

orexin-B: orexin peptide with 28 amino acids
higher affinity for OX2R compared with OX1R (OX2R): 10 fold

Cc1ccc(-n2nccn2)c(C(=O)N2CCN(c3nc4cc(Cl)ccc4o3)CC[C@H]2C)c1 [Suvorexant]
reduction in [^11C]CW24 uptake (OXRs; mouse brain, Suvorexant 5.0 mg/kg i.v., 30–60 mins post-injection): approximately 50%

COc1ccnc(N2CCC3(CCCN(Cc4c[nH]c5ccccc45)C3=O)CC2)n1 [IPSU, reference compound]
IC50 [4]: 1090 nM
IC50 [5]: 3130 nM
reduction in [^11C]CW24 uptake (OXRs; mice brain, 0.5 mg/kg IPSU i.v. 5 min pretreatment, 30–60 mins post-injection): Approximately 10%
reduction in [^11C]CW24 uptake (OXRs; mice brain, 2.0 mg/kg IPSU i.v. 5 min pretreatment): approximately 50%
